One experiment concerns human PBMCs. Briefly: Th1 cytokines in supernatants of stimulated human PBMC, GPR174 inhibitor with adenosine pathway inhibitors (Examples 15, 18-22). The format is cell-based. The conditions noted are these: donor 7. As for the experimental part:
Human PBMCs, obtained from a human volunteer donor, were dispensed at density of 1×10^6 cells/well in a 96-well flat-bottom plate and were stimulated in triplicate with 1 μg/mL anti-CD3 antibody (UCHT1) and 0.1 μg/mL anti-CD28 antibody (CD28.2) in the presence of:
Supernatants from these cells were collected at 24 hours post-stimulation and the levels of IFN-γ were determined by ELISA assay. Statistical analysis was carried out using one-way ANOVA with Tukey's post-hoc multiple comparison's correction.
Human PBMCs, obtained from a human volunteer donor (donor 1), were dispensed in X-vivo15 media (Lonza) supplemented with Glutamax, penicillin and streptomycin, at density of 1×10^6 cells/well in a 96-well flat-bottom plate and were stimulated with 1 μg/mL anti-CD3 antibody (UCHT1) and 0.1 μg/mL anti-CD28 antibody (CD28.2) in the presence of:
Supernatants from these cells were collected at 24 hours post-stimulation and the levels of IFN-γ, IL-2 and TNF were determined by ELISA assays.
Human PBMCs, obtained from two individual human volunteer donors (donor 2 and donor 3), were dispensed at density of 1×10^6 cells/well in a 96-well flat-bottom plate and were stimulated with 1 μg/mL anti-CD3 antibody (UCHT1) and 0.1 μg/mL anti-CD28 antibody (CD28.2) in the presence of:
Human PBMCs, obtained from twelve individual human volunteer donors were dispensed at density of 1×10^6 cells/well in a 96-well flat-bottom plate and were stimulated in triplicate with 1 μg/mL anti-CD3 antibody (UCHT1) and 0.1 μg/mL anti-CD28 antibody (CD28.2) in the presence of:
A total of 44 experiments using PBMC from 12 healthy donors were tested (9 donors for GM-CSF), with each donor tested in 1 to 8 separate experiments, depending on the donor (1 to 4 experiments each for GM-CSF). […] Cytokines were detected in supernatants with the Legendplex (Biolegend) or the MSB (MesoScale) platforms. […] One-way ANOVA with Tukey's post-hoc multiple comparisons correction was performed to identify significant differences (FC, mean fold change; ****, p<0.0001, ***, p<0.001; **, p<0.01; *, p<0.05, ns, not significant).
Human PBMC (1×10^6 cells/well in a 96-well flat-bottom plate) obtained from donor 3 and donor 6 were stimulated with 1 μg/mL anti-CD3 antibody (UCHT1) and 0.1 μg/mL anti-CD28 antibody (CD28.2) in the presence of:
Supernatants from these cells were collected at 24 hours post-stimulation and the levels of IFN-γ, IL-2, and TNF were determined with the MSD platform (MesoScale Discovery).
Human PBMC (1×10^6 cells/well in a 96-well flat-bottom plate) obtained from donor 7 were stimulated with 1 μg/mL […] (UCHT1) and 0.1 μg/mL anti-CD28 antibody (CD28.2) in the presence of:
Supernatants from these cells were collected at 24 hours post-stimulation and the levels of IFN-γ, IL-2, TNF and GM-CSF were determined with the MSD platform (MesoScale Discovery).
Supernatants from these cells were collected at 24 hours post-stimulation and the levels of IFN-γ, IL-2 and TNF were determined with the MSD platform (MesoScale Discovery).

For the next experiment, the target named is T1, ADBR2 (Homo sapiens, UniProt P07550).
T1 construct: host or cells: HEK293 or CHO cell lines (ATCC)
T1 sequence (P07550 whole entry): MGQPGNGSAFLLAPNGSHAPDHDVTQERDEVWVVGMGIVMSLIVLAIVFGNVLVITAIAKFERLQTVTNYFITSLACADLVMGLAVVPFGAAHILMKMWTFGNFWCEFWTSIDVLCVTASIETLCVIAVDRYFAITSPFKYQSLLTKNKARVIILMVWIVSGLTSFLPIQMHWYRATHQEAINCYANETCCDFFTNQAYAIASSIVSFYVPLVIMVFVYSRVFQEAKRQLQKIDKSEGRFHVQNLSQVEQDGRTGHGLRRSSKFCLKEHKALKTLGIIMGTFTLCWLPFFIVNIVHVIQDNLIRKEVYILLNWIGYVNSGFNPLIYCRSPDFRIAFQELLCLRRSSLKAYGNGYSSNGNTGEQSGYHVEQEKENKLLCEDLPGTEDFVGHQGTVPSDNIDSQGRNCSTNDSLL
Nature of the experiment: CRE-Luc reporter assay with control receptor ADBR2. Format: cell-based.

The mark [1] stands for this setting: high and low concentrations, ZM 0.1 μM.
The mark [2] stands for this setting: no ZM, 0.3 μM (compound 20: 3 μM).
The mark [3] stands for this setting: no ZM, 1 μM (compound 20: 10 μM).
Where [4] appears, read: with ZM-241385 0.1 μM, 0.3 μM (compound 20: 3 μM).
[5] abbreviates: with ZM-241385 0.1 μM, 1 μM (compound 20: 10 μM), label ZM = ZM alone.

Marks after values point to notes of the source that are not given here.

On to `O=C(c1ccccc1)N1CCN(c2cc(N3CCCCC3)c(F)cc2[N+](=O)[O-])CC1` [compound 6], for which, in the experiment on human PBMCs (setting [1]), the “synergy with ZM on GM-CSF (greater than the sum of the increases with each inhibitor alone)” value is “synergized with ZM”, the “synergy with ZM on IFN-γ (greater than the sum of the increases with each inhibitor alone)” value is listed as “synergized with ZM”, the “synergy with ZM on IL-2 (greater than the sum of the increases with each inhibitor alone)” value was “synergized with ZM” and the “synergy with ZM on TNF (greater than the sum of the increases with each inhibitor alone)” value was “synergized with ZM”. For the same compound, in the experiment on human PBMCs (setting [2]), the “GM-CSF, ratio relative to vehicle control” value was 3.9*; the “IFN-γ, ratio relative to vehicle control” value is on record as 2.0*; the “IL-2, ratio relative to vehicle control” value is reported as 1.5*; the “TNF, ratio relative to vehicle control” value is given as 2.1*. Also, in the experiment with human PBMCs (setting [3]), the “GM-CSF, ratio relative to vehicle control” value is recorded as 2.9*; the “IFN-γ, ratio relative to vehicle control” value was 1.9*; the “IL-2, ratio relative to vehicle control” value is listed as 1.5*; the “TNF, ratio relative to vehicle control” value is 2.1*. In the experiment with human PBMCs (setting [4]), the “GM-CSF, ratio relative to vehicle control” value is 6.2*; the “IFN-γ, ratio relative to vehicle control” value is 3.1*; the “IL-2, ratio relative to vehicle control” value is on record as 1.9*; the “TNF, ratio relative to vehicle control” value was 3.4*. In the experiment with human PBMCs (setting [5]), the “GM-CSF, ratio relative to vehicle control” value is recorded as 6.0*; the “IFN-γ, ratio relative to vehicle control” value is 3.8*; the “IL-2, ratio relative to vehicle control” value was 2.1*; the “TNF, ratio relative to vehicle control” value is recorded as 4.0*. Besides, the “Gs pathway in the presence of ADBR2 (CRE-Luc reporter)” value at ADBR2 is “did not inhibit”.
